According to PubChem BioAssay (NCI):
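A five-concentration, 48-hour dose response in 96-well plates underlies each endpoint, interpolated linearly between surrounding concentrations. TGI marks complete inhibition of growth.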

Columns and labels:
Assay in all cases: DTP human tumour cell line panel, 48 h
[1] = tested on: ACHN renal
[2] = tested on: HCC-2998 colon
[3] = tested on: IGROV1 ovarian
[4] = tested on: NCI-H522 lung
[5] = tested on: UACC-62 melanoma
[6] = tested on: COLO 205 colon
[7] = tested on: HCT-116 colon
[8] = tested on: UO-31 renal
[9] = tested on: NCI-H23 lung
[10] = tested on: SNB-19 CNS
[11] = tested on: MDA-MB-231 breast
[12] = tested on: 786-0 renal
[13] = tested on: M14 melanoma
[14] = tested on: MDA-MB-435
[15] = tested on: DU-145 prostate
[16] = tested on: MALME-3M melanoma
[17] = tested on: A498 renal
[18] = tested on: MCF7 breast
[19] = tested on: MOLT-4 leukemia
[20] = tested on: SK-OV-3 ovarian
[21] = tested on: SF-539 CNS
[22] = tested on: SW-620 colon
[23] = tested on: SK-MEL-5 melanoma
[24] = tested on: LOX IMVI melanoma
[25] = tested on: HT29 colon
[26] = tested on: K-562 leukemia
[27] = tested on: NCI-H226 lung
[28] = tested on: UACC-257 melanoma
[29] = tested on: MDA-N
[30] = tested on: CAKI-1 renal
[31] = tested on: OVCAR-8 ovarian
[32] = tested on: SK-MEL-2 melanoma
[33] = tested on: HS 578T breast
[34] = tested on: PC-3 prostate
[35] = tested on: HL-60(TB) leukemia
[36] = tested on: SK-MEL-28 melanoma
[37] = tested on: NCI-H460 lung
[38] = tested on: HOP-62 NSCLC
[39] = tested on: OVCAR-5 ovarian
[40] = tested on: HOP-92 NSCLC
[41] = tested on: OVCAR-4 ovarian
[42] = tested on: EKVX NSCLC
[43] = tested on: TK-10 renal
[44] = tested on: BT-549 breast
[45] = tested on: SN12C renal
[46] = tested on: RXF 393 renal
[47] = tested on: SR leukemia
[48] = tested on: SNB-75 CNS
[49] = tested on: HCT-15 colon
[50] = tested on: SF-295 CNS
[51] = tested on: SF-268 CNS
[52] = tested on: U251 CNS
[53] = tested on: OVCAR-3 ovarian
[54] = tested on: A549 NSCLC
[55] = tested on: RPMI-8226 leukemia
[56] = tested on: CCRF-CEM leukemia
[57] = tested on: NCI/ADR-RES ovarian
[58] = tested on: KM12 colon
[59] = tested on: T-47D breast

Work on `O=C(O)c1ccccc1C1CCCc2c1[nH]c1ccccc21` (configuration not stated) yielded a TGI [1] greater than 100 µM, a TGI [2] greater than 100 µM and a TGI [3] greater than 100 µM. It also gave a TGI [4] greater than 100 µM, a TGI [5] greater than 100 µM and a TGI [6] greater than 100 µM. It also gave a TGI [7] greater than 100 µM, a TGI [8] greater than 100 µM and a TGI [9] greater than 100 µM. For the same compound, the TGI [10] was greater than 100 µM, the TGI [11] was greater than 100 µM and the TGI [12] was greater than 100 µM. The TGI [13] was greater than 100 µM, the TGI [14] was greater than 100 µM and the TGI [15] was greater than 100 µM. The TGI [16] was greater than 100 µM, the TGI [17] was 85.9 µM and the TGI [18] was greater than 100 µM. The TGI [19] was greater than 100 µM, the TGI [20] was greater than 100 µM and the TGI [21] was greater than 100 µM. For the same compound, the TGI [22] was greater than 100 µM, the TGI [23] was greater than 100 µM and the TGI [24] was greater than 100 µM. It also gave a TGI [25] greater than 100 µM, a TGI [26] greater than 100 µM and a TGI [27] greater than 100 µM. The TGI [28] was greater than 100 µM, the TGI [29] was greater than 100 µM and the TGI [30] was greater than 100 µM. It also gave a TGI [31] greater than 100 µM, a TGI [32] greater than 100 µM and a TGI [33] greater than 100 µM. It also gave a TGI [34] greater than 100 µM, a TGI [35] greater than 100 µM and a TGI [36] greater than 100 µM. The TGI [37] was greater than 100 µM, the TGI [38] was greater than 100 µM and the TGI [39] was greater than 100 µM. The TGI [40] was greater than 100 µM, the TGI [41] was greater than 100 µM and the TGI [42] was greater than 100 µM. It also gave a TGI [43] greater than 100 µM, a TGI [44] greater than 100 µM and a TGI [45] greater than 100 µM. It also gave a TGI [46] greater than 100 µM, a TGI [47] greater than 100 µM and a TGI [48] of 59.3 µM. It also gave a TGI [49] greater than 100 µM, a TGI [50] greater than 100 µM and a TGI [51] greater than 100 µM. For the same compound, the TGI [52] was greater than 100 µM, the TGI [53] was greater than 100 µM and the TGI [54] was greater than 100 µM. It also gave a TGI [55] greater than 100 µM, a TGI [56] of 76.2 µM and a TGI [57] greater than 100 µM. For the same compound, the TGI [58] was greater than 100 µM and the TGI [59] was 71 µM.

With `COc1cc2c(cc1OC)C(=O)/C(=C/c1ccccc1)CC2` the TGI [1] was greater than 100 µM, the TGI [2] was 54.9 µM and the TGI [3] was greater than 100 µM. It also gave a TGI [4] greater than 100 µM, a TGI [6] of 38.8 µM and a TGI [7] greater than 100 µM. The TGI [8] was greater than 100 µM, the TGI [9] was greater than 100 µM and the TGI [10] was greater than 100 µM. For the same compound, the TGI [11] was greater than 100 µM, the TGI [12] was greater than 100 µM and the TGI [13] was greater than 100 µM. For the same compound, the TGI [14] was greater than 100 µM, the TGI [15] was greater than 100 µM and the TGI [16] was greater than 100 µM. For the same compound, the TGI [17] was 44.8 µM, the TGI [18] was greater than 100 µM and the TGI [19] was 71.2 µM. For the same compound, the TGI [20] was 97.5 µM, the TGI [21] was greater than 100 µM and the TGI [22] was greater than 100 µM. For the same compound, the TGI [23] was 35.2 µM, the TGI [24] was greater than 100 µM and the TGI [25] was 46.2 µM. It also gave a TGI [26] greater than 100 µM, a TGI [27] of 74.6 µM and a TGI [28] greater than 100 µM. It also gave a TGI [29] greater than 100 µM, a TGI [30] of 48.3 µM and a TGI [31] greater than 100 µM. For the same compound, the TGI [32] was 29.8 µM, the TGI [33] was greater than 100 µM and the TGI [34] was greater than 100 µM. For the same compound, the TGI [35] was 17.2 µM, the TGI [36] was greater than 100 µM and the TGI [37] was greater than 100 µM. It also gave a TGI [38] greater than 100 µM, a TGI [39] greater than 100 µM and a TGI [40] of 67.3 µM. The TGI [41] was greater than 100 µM, the TGI [42] was greater than 100 µM and the TGI [43] was greater than 100 µM. The TGI [44] was 74.1 µM, the TGI [45] was greater than 100 µM and the TGI [46] was greater than 100 µM. It also gave a TGI [47] greater than 100 µM, a TGI [48] greater than 100 µM and a TGI [49] of 50.3 µM. It also gave a TGI [50] of 41.1 µM, a TGI [51] greater than 100 µM and a TGI [52] greater than 100 µM. The TGI [53] was greater than 100 µM, the TGI [54] was greater than 100 µM and the TGI [55] was greater than 100 µM. It also gave a TGI [56] greater than 100 µM, a TGI [57] of 70 µM and a TGI [58] of 35.5 µM. The TGI [59] was greater than 100 µM.
